Structures are written as SMILES. Residue numbers refer to the chain shown, from its start. pEC50: −log10 of the molar value.

In one assay the target is T1, sGC enzyme (Homo sapiens, UniProt Q02108+Q02153).
T1 construct: incorporated into these cells detect cGMP formed by the compounds stimulating the sGC enzyme; host or cells: HEK293 cells stably expressing GloSensor 40F cGMP biosensor
T1 sequence (Q02153 1-619): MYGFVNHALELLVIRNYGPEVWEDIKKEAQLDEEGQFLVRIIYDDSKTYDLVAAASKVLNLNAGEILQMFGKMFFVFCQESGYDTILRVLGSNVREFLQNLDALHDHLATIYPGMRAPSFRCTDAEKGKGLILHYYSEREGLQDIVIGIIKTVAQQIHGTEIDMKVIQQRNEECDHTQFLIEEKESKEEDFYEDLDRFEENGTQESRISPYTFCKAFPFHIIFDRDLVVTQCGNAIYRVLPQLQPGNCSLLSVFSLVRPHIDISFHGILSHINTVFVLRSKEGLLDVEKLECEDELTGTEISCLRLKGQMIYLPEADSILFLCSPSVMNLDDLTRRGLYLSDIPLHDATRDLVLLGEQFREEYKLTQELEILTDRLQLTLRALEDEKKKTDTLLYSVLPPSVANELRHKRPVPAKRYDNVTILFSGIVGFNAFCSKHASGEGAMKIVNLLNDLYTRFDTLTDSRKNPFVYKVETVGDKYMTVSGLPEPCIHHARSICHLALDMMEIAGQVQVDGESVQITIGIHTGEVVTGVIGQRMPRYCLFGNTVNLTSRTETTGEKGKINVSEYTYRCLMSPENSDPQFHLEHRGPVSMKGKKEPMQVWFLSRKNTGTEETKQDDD
T1 sequence (Q02108 1-690): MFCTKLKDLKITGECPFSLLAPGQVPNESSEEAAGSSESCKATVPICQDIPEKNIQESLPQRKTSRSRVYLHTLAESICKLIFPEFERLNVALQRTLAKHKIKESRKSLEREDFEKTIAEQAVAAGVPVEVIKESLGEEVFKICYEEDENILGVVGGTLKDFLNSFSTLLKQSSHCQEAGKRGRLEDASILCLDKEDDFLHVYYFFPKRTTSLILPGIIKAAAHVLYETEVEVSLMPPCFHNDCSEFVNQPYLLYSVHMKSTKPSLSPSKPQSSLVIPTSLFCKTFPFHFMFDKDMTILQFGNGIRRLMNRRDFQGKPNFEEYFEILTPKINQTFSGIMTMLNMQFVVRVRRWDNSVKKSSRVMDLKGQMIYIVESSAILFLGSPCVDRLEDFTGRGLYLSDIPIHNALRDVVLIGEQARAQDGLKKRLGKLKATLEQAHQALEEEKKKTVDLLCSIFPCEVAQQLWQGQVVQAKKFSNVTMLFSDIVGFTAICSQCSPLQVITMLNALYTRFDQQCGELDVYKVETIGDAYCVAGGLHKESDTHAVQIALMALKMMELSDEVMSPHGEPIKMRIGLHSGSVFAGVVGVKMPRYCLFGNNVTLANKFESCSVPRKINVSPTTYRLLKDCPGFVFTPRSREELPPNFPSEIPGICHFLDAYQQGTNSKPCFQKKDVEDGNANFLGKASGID
In words: cGMP GloSensor cell-based assay, 384-well format. The note with it: HEK293 cells expressing GloSensor 40F cGMP; 10 μM DETA-NONOate; normalized to 30 μM Compound Y; compounds in Table IA; read-out: Glo-sensor AbsEC50. In a few lines: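 HEK293 cells expressing GloSensor 40F cGMP luciferase biosensor, preloaded with 2 mM GloSensor substrate for 90 min at 25 °C. Endpoint luminescence read after 55 min compound incubation at room temperature.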

For a further assay, the target named is T2, sGC (Rattus norvegicus, UniProt P20595).
T2 construct: Rat primary neurons were isolated from fetuses of 18-day pregnant Sprague-Dawley females; endogenous in cells; host or cells: Primary rat hippocampal neurons (E18 Sprague-Dawley fetuses)
T2 sequence (P20595 1-619): T1 sequence (Q02153 1-619) with N171S, E205D, N247K, T299A, K615N, D618E, D619N
In words: cGMP neuronal cell-based assay. The note with it: rat primary hippocampal neurons; 30 μM DETA-NO; cGMP by LC-MS/MS; normalized to 10 μM Compound Y; compounds in Table IA; read-out: sGC-neuron Abs EC50. How it is done:
Rat primary neurons were isolated from fetuses of 18-day pregnant Sprague-Dawley females. The fetuses were collected in Hanks' balanced salt solution (HBSS) and brains were rapidly removed. The cerebral hippocampi were isolated and mechanically fragmented. Further tissue digestion was performed with 0.25% (wt/vol) trypsin solution in HBSS without Ca2+ and Mg2+ for 15 min at 37° C. After trypsination, cells were washed and resuspended in neurobasal medium supplemented with 0.5 mM L-glutamine, 12.5 uM glutamic acid, 2% B-27 and 100U/mL penicillin, and 100 μg/mL streptomycin. Cells were plated at a density of 4×10^4 cells/well in a poly-D-lysine coated 384-well flat clear-bottom plate (Corning Cat No 354662). Cells were incubated 6-7 days at 37° C. in a humidified chamber with 5% CO2. Media was removed and cells were washed 1× with HBSS containing Ca2+ and Mg2+, and replaced with 40 uL HBSS containing 0.5 mM IBMX, and incubated for 15 minutes at 37° C. 10 uL of a 5× stock of test compounds with diethylenetriamine NONOate (DETA-NO) was added. Final concentration of DETA-NO was 30 μM. Cells were incubated for 20 min at 37° C. Medium was removed, 50 uL of ice-cold 10% acetic acid was added, and incubated for 60 minutes at 4° C. Following centrifugation at 4° C. for 5 minutes at 1000×g to pellet cell debris, the supernatant was aspirated to a clean plate and the samples were analyzed for cGMP content. cGMP concentrations were determined from each sample using LC-MS/MS.
Data were normalized to a high control using the following equation: 100*(Sample−Low Control)/(High Control−Low Control), where the low control is the average of 15 samples treated with 1% DMSO, and the high control is the average of 15 samples treated with 10 μM of the known sGC stimulator Compound Y (depicted in Example 2). Data were fit using a 4-parameter fit (log(agonist) vs. response—variable slope) using GraphPad Prism Software v.5. n=2 for all compounds. The Absolute EC50 was interpolated from the curve fit and is defined as the concentration at which a given compound elicits 50% of the high control response after data normalization. Compounds failing to elicit a minimum response of 50% are reported as >30 μM. For compounds run in duplicate or n higher than 2, the result herein given is the geometric mean of the several results obtained.

As for `Fc1ccc(F)c(Cc2nn(-c3nc(C(F)(F)F)n[nH]3)c3cccnc23)c1` [Compound I-130, 3-(2,5-Difluorobenzyl)-1-(3-(trifluoromethyl)-1H-1,2,4-triazol-5-yl)-1H-pyrazolo[4,3-b]pyridine], the pEC50 on sGC enzyme was more than 7.00; at sGC, not below 7.00.

`Fc1ccc(F)c(Cc2nn(-c3nc(C(F)F)n[nH]3)c3cccnc23)c1` [Compound I-131, 3-(2,5-Difluorobenzyl)-1-(3-(difluoromethyl)-1H-1,2,4-triazol-5-yl)-1H-pyrazolo[4,3-b]pyridine]: the pEC50 at sGC enzyme was more than 7.00; on sGC, not below 7.00.

The record behind these values is US12435080B2, “sGC stimulators” (Tisento Therapeutics Inc., priority 2016, dated 2025).
